The target of assay [1] is T1, SMYD3 (Homo sapiens (Human), UniProt Q9H7B4). In words: SMYD3 biochemical assay (SPA, 3H-SAM methylation of MEKK2 protein substrate). The settings on record: read-out: SMYD3 Biochem IC50 (μM)*. A digest of the protocol: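 Native full-length human SMYD3 (E. coli-expressed, tags removed) was preincubated with compound for 30 min at room temperature in 25 mM Tris-Cl pH 8.0, 1 mM TCEP, 0.005% BSG, 0.005% Tween 20. Reaction was started with 3H-SAM plus GST-MEKK2, quenched with 100 uM unlabeled SAM, and read by SPA scintillation counting.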

For assay [2], the target named is T1, SMYD3. In words: SMYD3 cell assay (Trimethyl-MEKK2 In-Cell Western in 293T/17 cells). The assay is classed as cell-based. The note with it: 293T/17 cells; read-out: SMYD3 Cell IC50 (μM)*. The essentials: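 In-Cell Western ratio of trimethyl-Lys260 MEKK2 to anti-flag signal; percent inhibition from DMSO and maximum-inhibition controls, IC50 by non-linear regression, triplicates.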

T1 sequence (Q9H7B4 whole entry): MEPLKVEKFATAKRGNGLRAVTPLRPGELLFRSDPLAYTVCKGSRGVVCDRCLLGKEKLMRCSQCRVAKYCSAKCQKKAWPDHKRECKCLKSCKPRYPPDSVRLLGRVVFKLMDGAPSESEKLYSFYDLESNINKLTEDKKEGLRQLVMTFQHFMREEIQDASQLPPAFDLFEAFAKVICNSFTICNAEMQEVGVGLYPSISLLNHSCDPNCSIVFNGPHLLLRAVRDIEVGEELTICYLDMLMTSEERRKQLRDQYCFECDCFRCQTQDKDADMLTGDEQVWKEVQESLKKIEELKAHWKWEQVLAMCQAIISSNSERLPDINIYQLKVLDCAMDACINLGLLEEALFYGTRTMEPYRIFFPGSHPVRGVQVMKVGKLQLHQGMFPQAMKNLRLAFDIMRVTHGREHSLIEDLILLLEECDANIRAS

Broadly, the IC50 is the point on the concentration scale where inhibition reaches its midpoint. Consider `NCCCC(=O)N1CC2CCC1CC2NC(=O)c1cc(C2CC2)on1` (centres unmarked) [compound 265, N-(2-(4-aminobutanoyl)-2-azabicyclo[2.2.2]octan-5-yl)-5-cyclopropylisoxazole-3-carboxamide], for which the IC50 was 5.45 µM on SMYD3 [1] and over 40 µM at SMYD3 [2].

Take `C[C@H]1C[C@@H](NC(=O)c2cc(C3CC3)on2)CCN1C(=O)CC(CN)Cc1ccccc1` (stereo partly drawn) [compound 269, N-((2S,4S)-1-(4-amino-3-benzylbutanoyl)-2-methylpiperidin-4-yl)-5-cyclopropylisoxazole-3-carboxamide]: the IC50 at SMYD3 [1] is over 10 µM; on SMYD3 [2], over 40 µM.

Consider `C[C@@H]1C[C@@H](NC(=O)c2cc(C3CC3)on2)CCN1C(=O)CC(CN)Cc1ccccc1` (stereo partly drawn) [compound 270, N-((2R,4S)-1-(4-amino-3-benzylbutanoyl)-2-methylpiperidin-4-yl)-5-cyclopropylisoxazole-3-carboxamide], for which the IC50 is over 10 µM at SMYD3 [1] and over 40 µM on SMYD3 [2].

For the molecule `C[C@H]1C[C@H](NC(=O)c2cc(C3CC3)on2)CCN1C(=O)CC(CN)Cc1ccccc1` (stereo partly drawn) [compound 271, N-((2S,4R)-1-(4-amino-3-benzylbutanoyl)-2-methylpiperidin-4-yl)-5-cyclopropylisoxazole-3-carboxamide], the IC50 on SMYD3 [1] is over 10 µM; on SMYD3 [2] it was over 40 µM.

For the molecule `C[C@@H]1C[C@H](NC(=O)c2cc(C3CC3)on2)CCN1C(=O)CC(CN)Cc1ccccc1` (stereo partly drawn) [compound 272, N-((2R,4R)-1-(4-amino-3-benzylbutanoyl)-2-methylpiperidin-4-yl)-5-cyclopropylisoxazole-3-carboxamide], the half-maximal inhibitory concentration (IC50) on SMYD3 [1] is over 10 µM; on SMYD3 [2], over 40 µM.

Take `C[C@H]1C[C@@H](NC(=O)c2cc(C3CC3)on2)CCN1S(=O)(=O)Cc1ccccc1` [compound 274, N-((2S,4S)-1-(benzylsulfonyl)-2-methylpiperidin-4-yl)-5-cyclopropylisoxazole-3-carboxamide]: the IC50 at SMYD3 [1] worked out at 0.433 µM; at SMYD3 [2], 1.42 µM.

Regarding `C[C@H]1C[C@@H](NC(=O)c2cc(C3CC3)on2)CCN1S(=O)(=O)c1ccccn1` [compound 275, 5-cyclopropyl-N-((2S,4S)-2-methyl-1-(pyridin-2-ylsulfonyl)piperidin-4-yl)isoxazole-3-carboxamide], the values for the IC50 on SMYD3 [1] and at SMYD3 [2] were 0.154 µM and 0.676 µM, respectively.

As for `C[C@@H]1C[C@@H](NC(=O)c2cc(C3CC3)on2)CCN1S(=O)(=O)c1cn(C)cn1` [compound 283, 5-cyclopropyl-N-((2R,4S)-2-methyl-1-((1-methyl-1H-imidazol-4-yl)sulfonyl)piperidin-4-yl)isoxazole-3-carboxamide], the values for the IC50 at SMYD3 [1] and on SMYD3 [2] were over 10 µM and over 40 µM, respectively.

For the molecule `C[C@H]1C[C@H](NC(=O)c2cc(C3CC3)on2)CCN1S(=O)(=O)c1ccccn1` [compound 286, 5-cyclopropyl-N-((2S,4R)-2-methyl-1-(pyridin-2-ylsulfonyl)piperidin-4-yl)isoxazole-3-carboxamide], the IC50 was over 10 µM on SMYD3 [1] and 10.7 µM at SMYD3 [2].

In the case of `C[C@H]1C[C@H](NC(=O)c2cc(C3CC3)on2)CCN1S(=O)(=O)c1cn(C)cn1` [compound 291, 5-cyclopropyl-N-((2S,4R)-2-methyl-1-((1-methyl-1H-imidazol-4-yl)sulfonyl)piperidin-4-yl)isoxazole-3-carboxamide], the values for the IC50 at SMYD3 [1] and on SMYD3 [2] were over 10 µM and over 40 µM, respectively.

With `C[C@@H]1C[C@H](NC(=O)c2cc(C3CC3)on2)CCN1S(=O)(=O)c1ccccn1` [compound 293, 5-cyclopropyl-N-((2R,4R)-2-methyl-1-(pyridin-2-ylsulfonyl)piperidin-4-yl)isoxazole-3-carboxamide], the IC50 came out at 4.84 µM on SMYD3 [1] and 7.19 µM on SMYD3 [2].

Regarding `C[C@@H]1C[C@H](NC(=O)c2cc(C3CC3)on2)CCN1S(=O)(=O)c1cn(C)cn1` [compound 294, 5-cyclopropyl-N-((2R,4R)-2-methyl-1-((1-methyl-1H-imidazol-4-yl)sulfonyl)piperidin-4-yl)isoxazole-3-carboxamide], the IC50 at SMYD3 [1] was over 10 µM; on SMYD3 [2], over 40 µM.

Regarding `C[C@@H]1C[C@H](NC(=O)c2cc(C3CC3)on2)CCN1S(=O)(=O)CCc1ccccc1` [compound 295, 5-cyclopropyl-N-((2R,4R)-2-methyl-1-(phenethylsulfonyl)piperidin-4-yl)isoxazole-3-carboxamide], the values for the IC50 at SMYD3 [1] and on SMYD3 [2] were over 10 µM and over 40 µM, respectively.

In the case of `N[C@H]1CC[C@H](C(=O)N2CC[C@@H](NC(=O)c3cc(C4CC4)on3)C[C@H]2Cc2ccccc2)CC1` [compound 309, N-((2R,4R)-1-((1r,4R)-4-aminocyclohexane-1-carbonyl)-2-benzylpiperidin-4-yl)-5-cyclopropylisoxazole-3-carboxamide], the IC50 at SMYD3 [1] was 1.18 µM; on SMYD3 [2], 16.8 µM.

Regarding `N[C@H]1CC[C@H](C(=O)N2CC[C@H](NC(=O)c3cc(C4CC4)on3)C[C@@H]2Cc2ccccc2)CC1` [compound 310, N-((2S,4S)-1-((1r,4S)-4-aminocyclohexane-1-carbonyl)-2-benzylpiperidin-4-yl)-5-cyclopropylisoxazole-3-carboxamide], the figures for the IC50 at SMYD3 [1] and at SMYD3 [2] were 0.733 µM and 8.1 µM, respectively.

`C[C@@H]1C[C@H](NC(=O)c2cc(C3CC3)on2)CCN1C(=O)CC(CN)c1ccccc1` (stereo partly drawn) [compound 314, N-((2R,4R)-1-(4-amino-3-phenylbutanoyl)-2-methylpiperidin-4-yl)-5-cyclopropylisoxazole-3-carboxamide]: the concentration for half-maximal inhibition (IC50) on SMYD3 [1] is 4.73 µM; on SMYD3 [2], over 40 µM.

Take `C[C@H]1C[C@@H](NC(=O)c2cc(C3CC3)on2)CCN1S(=O)(=O)N(C)C` [compound 315, 5-cyclopropyl-N-((2S,4S)-1-(N,N-dimethylsulfamoyl)-2-methylpiperidin-4-yl)isoxazole-3-carboxamide]: the IC50 on SMYD3 [1] was 1.33 µM; at SMYD3 [2], 4.84 µM.

As for `CCCCS(=O)(=O)N1CC[C@H](NC(=O)c2cc(C3CC3)on2)C[C@@H]1C` [compound 316, N-((2S,4S)-1-(butylsulfonyl)-2-methylpiperidin-4-yl)-5-cyclopropylisoxazole-3-carboxamide], the IC50 worked out at 0.237 µM on SMYD3 [1] and 0.782 µM on SMYD3 [2].

For `C[C@H]1C[C@@H](NC(=O)c2cc(C3CC3)on2)CCN1S(=O)(=O)c1cccnc1` [compound 317, 5-cyclopropyl-N-((2S,4S)-2-methyl-1-(pyridin-3-ylsulfonyl)piperidin-4-yl)isoxazole-3-carboxamide], the IC50 stood at 0.686 µM at SMYD3 [1] and 4.11 µM at SMYD3 [2].

For `C[C@H]1C[C@@H](NC(=O)c2cc(C3CC3)on2)CCN1S(=O)(=O)Cc1cccnc1` [compound 319, 5-cyclopropyl-N-((2S,4S)-2-methyl-1-((pyridin-3-ylmethyl)sulfonyl)piperidin-4-yl)isoxazole-3-carboxamide], the IC50 at SMYD3 [1] worked out at 1.43 µM; on SMYD3 [2], 4.53 µM.

In the case of `C[C@@H]1C[C@H](NC(=O)c2cc(C3CC3)on2)CCN1S(=O)(=O)N(C)C` [compound 328, 5-cyclopropyl-N-((2R,4R)-1-(N,N-dimethylsulfamoyl)-2-methylpiperidin-4-yl)isoxazole-3-carboxamide], the figures for the IC50 at SMYD3 [1] and on SMYD3 [2] were 6.91 µM and 15.2 µM, respectively.

For `C[C@@H]1C[C@H](NC(=O)c2cc(C3CC3)on2)CCN1S(=O)(=O)Cc1cccnc1` [compound 329, 5-cyclopropyl-N-((2R,4R)-2-methyl-1-((pyridin-3-ylmethyl)sulfonyl)piperidin-4-yl)isoxazole-3-carboxamide], the half-inhibitory concentration (IC50) on SMYD3 [1] amounted to 6.42 µM; on SMYD3 [2], 20 µM.

In the case of `CC(=O)Nc1ccc(S(=O)(=O)N2CC[C@@H](NC(=O)c3cc(C4CC4)on3)C[C@H]2C)cc1` [compound 330, N-((2R,4R)-1-((4-acetamidophenyl)sulfonyl)-2-methylpiperidin-4-yl)-5-cyclopropylisoxazole-3-carboxamide], the IC50 was over 10 µM at SMYD3 [1] and 29.3 µM on SMYD3 [2].

For the molecule `CCOC(=O)C1CN(S(=O)(=O)CCCN)CCC1NC(=O)c1cc(C2CC2)on1` (centres unmarked) [compound 331, ethyl 1-((3-aminopropyl)sulfonyl)-4-(5-cyclopropylisoxazole-3-carboxamido)piperidine-3-carboxylate], the IC50 at SMYD3 [1] was found to be 0.147 µM; at SMYD3 [2], 2.31 µM.

On to `NCCCC(=O)N1CC[C@@H](NC(=O)c2cc(C3CC3)on2)C[C@H]1Cc1ccccc1` [compound 333, N-((2R,4R)-1-(4-aminobutanoyl)-2-benzylpiperidin-4-yl)-5-cyclopropylisoxazole-3-carboxamide], for which the values for the IC50 at SMYD3 [1] and on SMYD3 [2] were over 10 µM and over 40 µM, respectively.

Consider `NCCCC(=O)N1CC[C@@H](NC(=O)c2cc(C3CC3)on2)C[C@@H]1Cc1ccccc1` [compound 334, N-((2S,4R)-1-(4-aminobutanoyl)-2-benzylpiperidin-4-yl)-5-cyclopropylisoxazole-3-carboxamide], for which the results for the 50% inhibitory concentration (IC50) on SMYD3 [1] and at SMYD3 [2] were 1.9 µM and 33 µM, respectively.

For the molecule `NCCCC(=O)N1CC[C@H](NC(=O)c2cc(C3CC3)on2)C[C@H]1Cc1ccccc1` [compound 335, N-((2R,4S)-1-(4-aminobutanoyl)-2-benzylpiperidin-4-yl)-5-cyclopropylisoxazole-3-carboxamide], the IC50 stood at 1.12 µM at SMYD3 [1] and 19.6 µM at SMYD3 [2].

For the molecule `NCCCC(=O)N1CC[C@H](NC(=O)c2cc(C3CC3)on2)C[C@@H]1Cc1ccccc1` [compound 336, N-((2S,4S)-1-(4-aminobutanoyl)-2-benzylpiperidin-4-yl)-5-cyclopropylisoxazole-3-carboxamide], the figures for the IC50 on SMYD3 [1] and on SMYD3 [2] were 0.0541 µM and 1.62 µM, respectively.
